Values of other authors in patent US20220323409A1, “MODIFIED RELEASE FORMULATIONS AND USES THEREOF” (SUNOVION PHARMACEUTICALS INC., priority 2019, published 2022).

What was measured:
[1] = 400-800 mg/day dosage range, product label
[2] = Taubel et al. 2017

In the case of `CCN1CCCC1CNC(=O)c1cc(S(=O)(=O)CC)c(N)cc1OC` (racemic) [Racemic (50:50), 4-amino-N-[(1-ethylpyrrolidin-2-yl)methyl]-5-ethylsulfonyl-2-methoxy-benzamide], the “frequency of movement related adverse events (tremor, rigidity, hypokinesia, hypersalivation, akathisia, dyskinesia)” value [1] is given as “very common” and the “QT interval prolongation versus plasma concentration” value [2] is given as “substantially linear increase of prolongation with plasma concentration”.
